Experimental findings from patent US20240199623A1 (ILDONG PHARMACEUTICAL CO., LTD., priority 2020, published 2024) are described below.

Each structure is given as a SMILES string. pEC50: −log10 of the molar value. In brackets after ≈: the same amount, converted by molar mass.

The nature of data set [1]: Phosphate-buffered saline (PBS) solubility of compounds. It is filed as physicochemical. The following applies: aqueous buffer, thermodynamic from solid, PBS pH 7.5, 0.5 mg/mL, vortexed 90 min, filtered, LC-MS/MS, read-out: Solubility Range. On the procedure: PBS solutions (pH 7.5) were prepared according to the following compositions and stored at 4° C. Test compounds were dissolved in PBS (pH 7.5) at 0.5 mg/mL and vortexed for 90 min. The PBS solution was sequentially filtered through a 0.45, 1.2, […] syringe filter. Concentration of test compounds were determined using LC-MS/MS with appropriate dilution of the samples.

Another data set relates to C57BL/6 female mice. Briefly: Scopolamine induced tear volume reduction model. The data set is classed as in vivo, mouse. The settings on record: scopolamine-injected mice, ophthalmic solution topically on both eyes 3 times a day, phenol red thread; average if evaluated twice. The procedure:
Seven-week old C57BL/6 female mice were used.
Scopolamine hydrobromide was purchased from Sigma Aldrich (Cat No. S0929), dissolved in saline, and sterilized prior to use.
Zone-Quick phenol red thread was obtained from Menicon.
The test compounds used in this experiment were dissolved in PBS containing 1% of surfactant.
Scopolamine (0.2 ml of 2.5 mg/mL solution) was injected subcutaneously 3 times a day to induce a decrease in the tear volume in the mouse. At the same time, the ophthalmic solution of test compounds or vehicle were topically administered onto both eyes 3 times a day. Tear volume was measured by phenol red thread before dosing (basal level) and 1 hour after the last administration of scopolamine and ophthalmic solution. The results were obtained by measuring the length of the phenol red thread turning red by tears. The schedule of study is expressed as FIG. 1.
If the test compound was evaluated twice, the average value was used.

Data set [2] addresses T1, human wild type-CFTR (Homo sapiens, UniProt P13569). Nature of the data set: Short-circuit current measurement. It is filed as cell-based. Also noted: expressed in transfected cells. The settings on record: FRT cells expressing human wild type-CFTR; Forskolin 20 μM signal used as 100% activity; read-out: Short-circuit current measurement (EC50) Concentration range. The source says:
Forskolin (Tocris cat. #1099), CFTRinh-172 (Tocris cat. #3430), amphotericin B (Tocris cat. #6930), dimethyl sulfoxide (Sigma cat. #D4540), EVC4000 Multi-Channel V/I Clamp (World Precision Instruments, Sarasota, FL), PowerLab 4/35 (AD Instruments, Castle Hill, Australia), Labchart Pro 7, GraphPad Prism 5 (GraphPad Software, Inc.). Fisher rat thyroid (FRT) cells expressing human wild type-CFTR were provided by Dr. Alan Verkman (University of California, San Francisco) and grown in DMEM/F12 medium (1:1) supplemented with 10% FBS, 2 mM glutamine, 100 units/ml penicillin and 100 μg/ml streptomycin. Snapwell inserts containing CF TR-expressing FRT cells were mounted in Ussing chambers (Physiologic Instruments, San Diego, CA). […] Forskolin, test compounds, and CFTRinh-172 were added to the apical and basolateral bath solution. Apical membrane current and short-circuit current were measured with an EVC4000 Multi-Channel V/I Clamp (World Precision Instruments, Sarasota, FL) and recorded using PowerLab 4/35 (AD Instruments, Castle Hill, Australia). Data were collected and analyzed with ADInstruments acquisition software Labchart Pro 7 software. The sampling rate was 4 Hz.

Data set [3] addresses T1, human wild type-CFTR. Briefly: Cell-based YFP assay. Also noted: expressed in transfected cells; host or cells: CHO-K1 (Chinese hamster ovary). The following applies: CHO-K1 cells expressing human wild type-CFTR and YFP-H148Q/I152L; forskolin 20 μM = 100% activity; read-out: Cell-based YFP Assay (EC50) Concentration Range. In short, it runs like this:
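I⁻-driven YFP fluorescence quenching at 37 °C: 2 s baseline, addition of 140 mM iodide solution, then 14 s of readings at 0.4 s intervals. Cells were CHO-K1 expressing human wild-type CFTR plus YFP-H148Q/I152L. EC50 derived from averaged triplicates.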

T1 sequence (P13569 whole entry): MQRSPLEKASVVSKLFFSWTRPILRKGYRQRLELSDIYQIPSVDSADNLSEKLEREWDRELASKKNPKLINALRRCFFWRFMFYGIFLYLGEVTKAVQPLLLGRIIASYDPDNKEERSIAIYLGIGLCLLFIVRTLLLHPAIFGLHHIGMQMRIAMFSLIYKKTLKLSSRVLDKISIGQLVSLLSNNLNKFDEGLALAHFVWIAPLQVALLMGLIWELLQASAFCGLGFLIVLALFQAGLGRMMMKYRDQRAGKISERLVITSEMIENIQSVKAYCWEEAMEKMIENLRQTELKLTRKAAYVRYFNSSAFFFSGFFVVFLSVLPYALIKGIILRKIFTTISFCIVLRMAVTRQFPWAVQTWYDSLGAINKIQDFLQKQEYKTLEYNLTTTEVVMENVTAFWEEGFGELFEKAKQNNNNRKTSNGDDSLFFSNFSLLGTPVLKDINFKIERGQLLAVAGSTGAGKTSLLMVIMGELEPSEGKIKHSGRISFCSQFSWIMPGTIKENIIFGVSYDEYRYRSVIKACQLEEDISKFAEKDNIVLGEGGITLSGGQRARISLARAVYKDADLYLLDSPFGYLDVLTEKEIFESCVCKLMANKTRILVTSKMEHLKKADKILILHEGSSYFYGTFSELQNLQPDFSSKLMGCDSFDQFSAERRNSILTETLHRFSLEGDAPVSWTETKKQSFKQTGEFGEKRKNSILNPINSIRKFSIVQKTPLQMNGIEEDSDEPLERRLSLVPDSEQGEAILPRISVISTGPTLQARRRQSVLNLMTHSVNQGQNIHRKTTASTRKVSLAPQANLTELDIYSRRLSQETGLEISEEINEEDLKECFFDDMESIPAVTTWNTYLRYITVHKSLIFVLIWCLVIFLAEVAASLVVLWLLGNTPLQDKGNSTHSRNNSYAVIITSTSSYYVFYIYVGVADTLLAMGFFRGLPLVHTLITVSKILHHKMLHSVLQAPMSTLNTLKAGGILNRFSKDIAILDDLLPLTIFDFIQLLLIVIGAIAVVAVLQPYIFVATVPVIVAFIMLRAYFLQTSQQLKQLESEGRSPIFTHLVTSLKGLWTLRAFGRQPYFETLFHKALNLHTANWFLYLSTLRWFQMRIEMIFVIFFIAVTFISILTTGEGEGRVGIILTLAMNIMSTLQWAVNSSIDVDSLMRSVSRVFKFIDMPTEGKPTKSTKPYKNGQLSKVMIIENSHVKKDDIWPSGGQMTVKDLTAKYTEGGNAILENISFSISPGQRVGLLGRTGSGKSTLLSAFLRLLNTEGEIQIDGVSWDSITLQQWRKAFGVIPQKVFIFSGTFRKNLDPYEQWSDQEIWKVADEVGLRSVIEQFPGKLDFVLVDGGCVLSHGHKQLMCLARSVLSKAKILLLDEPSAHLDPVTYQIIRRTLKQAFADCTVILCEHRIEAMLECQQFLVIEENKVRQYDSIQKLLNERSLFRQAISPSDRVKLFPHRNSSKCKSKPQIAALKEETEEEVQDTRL

The solubility is the dissolved amount per volume that the medium holds. `COc1ccc(-c2ccnc3cc(C(=O)NC4CCCCC4)nn23)cc1OC` [Compound 2, N-cyclohexyl-7-(3,4-dimethoxyphenyl)pyrazolo[1,5-a]pyrimidine-2-carboxamide]: the solubility at 90 min in data set [1] is below 0.1 µg/mL. Also, in the data set on C57BL/6 female mice, the “Ratio of tear volume (test compound to vehicle)” value (“Ratio of tear volume” below) turned out to be 1.40. In addition, the values for the pEC50 at human wild type-CFTR [2] and on human wild type-CFTR [3] were 5.70 to 6.70 and above 6.70, respectively.
With `CCOc1ccc(NC(=O)c2cc3nccc(-c4ccc(OC)c(OC)c4)n3n2)cc1` [Compound 3, 7-(3,4-dimethoxyphenyl)-N-(4-ethoxyphenyl)pyrazolo[1,5-a]pyrimidine-2-carboxamide], the solubility at 90 min in data set [1] is below 0.1 µg/mL. In the data set on C57BL/6 female mice, the “Ratio of tear volume” value was found to be 1.20. The pEC50 at human wild type-CFTR [2] and on human wild type-CFTR [3] was above 6.70 throughout.
With `COc1ccc(NC(=O)c2cc3nccc(-c4ccc(OC)c(OC)c4)n3n2)cc1` [Compound 6, 7-(3,4-dimethoxyphenyl)-N-(4-methoxyphenyl)pyrazolo[1,5-a]pyrimidine-2-carboxamide], the solubility at 90 min in data set [1] is below 0.1 µg/mL. Also, in the data set on C57BL/6 female mice, the “Ratio of tear volume” value worked out at 1.58. The pEC50 on human wild type-CFTR [2] and at human wild type-CFTR [3] was above 6.70 in each case.
For `COC(=O)C12CC(NC(=O)c3cc4nccc(-c5ccc(OC)c(OC)c5)n4n3)(C1)C2` [Compound 36, methyl 3-(7-(3,4-dimethoxyphenyl)pyrazolo[1,5-a]pyrimidine-2-carboxamido)bicyclo[1.1.1]pentane-1-carboxylate], the solubility at 90 min in data set [1] lay within 0.1 to 10 µg/mL (≈ 0.237 to 23.7 µM). Moreover, in the data set on C57BL/6 female mice, the “Ratio of tear volume” value turned out to be 1.23. In addition, the pEC50 at human wild type-CFTR [2] is at most 5.70; at human wild type-CFTR [3], 5.70 to 6.70.
For `COc1ccc(-c2ccnc3cc(C(=O)N[C@H]4CC[C@H](O)CC4)nn23)cc1OC` [Compound 69, 7-(3,4-dimethoxyphenyl)-N-((1R,4R)-4-hydroxycyclohexyl)pyrazolo [1,5-a]pyrimidine-2-carboxamide] the same measures were above 10 µg/mL, 0.76, at most 5.70 and 5.70 to 6.70.
For `COc1ccc(-c2ccnc3cc(C(=O)N[C@H]4CC[C@@H](C(=O)N5CCOCC5)CC4)nn23)cc1OC` [Compound 72, 7-(3,4-dimethoxyphenyl)-N-((1S,4S)-4-(morpholine-4-carbonyl)cyclohexyl) pyrazolo[1,5-a]pyrimidine-2-carboxamide] the same measures were above 10 µg/mL, 1.06, at most 5.70 and 5.70 to 6.70.
For the molecule `COc1ccc(-c2ccnc3cc(C(=O)Nc4ccc(C(=O)O)cc4C)nn23)cc1OC` [Compound 126, 4-(7-(3,4-dimethoxyphenyl)pyrazolo[1,5-a]pyrimidine-2-carboxamido)-3-methylbenzoic acid], the solubility at 90 min in data set [1] lay within 0.1 to 10 µg/mL (≈ 0.231 to 23.1 µM). In addition, the “Ratio of tear volume” value with C57BL/6 female mice turned out to be 0.97. The pEC50 at human wild type-CFTR [2] was at most 5.70; on human wild type-CFTR [3] it was 5.70 to 6.70.
Take `COC(=O)c1ccc(NC(=O)c2cc3nccc(-c4ccc(OC)c(OC)c4)n3n2)cc1Cl` [Compound 140, methyl 2-chloro-4-(7-(3,4-dimethoxyphenyl)pyrazolo[1,5-a]pyrimidine-2-carboxamido)benzoate]: in data set [1], the solubility at 90 min was below 0.1 µg/mL. In addition, the “Ratio of tear volume” value in the data set with C57BL/6 female mice amounted to 1.48. Moreover, the pEC50 at human wild type-CFTR [2] and on human wild type-CFTR [3] was above 6.70 throughout.
For `COC(=O)c1ccc(NC(=O)c2cc3nccc(-c4ccc(OC)c(OC)c4)n3n2)cc1F` [Compound 141, methyl 4-(7-(3,4-dimethoxyphenyl)pyrazolo [1,5-a]pyrimidine-2-carboxamido)-2-fluorobenzoate], the solubility at 90 min in data set [1] was below 0.1 µg/mL. In addition, in the data set with C57BL/6 female mice, the “Ratio of tear volume” value is listed as 1.34. Further, the pEC50 at human wild type-CFTR [2] and on human wild type-CFTR [3] was above 6.70 in each case.
Regarding `COc1ccc(-c2ccnc3cc(C(=O)NC45CCC(C(=O)O)(CC4)CC5)nn23)cc1OC` [Compound 149, 4-(7-(3,4-dimethoxyphenyl)pyrazolo[1,5-a]pyrimidine-2-carboxamido)bicyclo[2.2.2]octane-1-carboxylic acid], the solubility at 90 min in data set [1] was above 10 µg/mL. In addition, the “Ratio of tear volume” value in the data set on C57BL/6 female mice is reported as 1.26. The pEC50 at human wild type-CFTR [2] was at most 5.70; at human wild type-CFTR [3], 5.70 to 6.70.
The matching figures for `COc1ccc(-c2ccnc3cc(C(=O)Nc4ccc(C(=O)N5CCN(C)CC5)cc4F)nn23)cc1OC` [Compound 158, 7-(3,4-dimethoxyphenyl)-N-(2-fluoro-4-(4-methylpiperazine-1-carbonyl)phenyl)pyrazolo[1,5-a]pyrimidine-2-carboxamide]: below 0.1 µg/mL, 1.40, above 6.70 and above 6.70.
Consider `COc1ccc(-c2ccnc3cc(C(=O)Nc4ccc(C(=O)N5CCN(C(C)C)CC5)cc4)nn23)cc1OC` [Compound 159, 7-(3,4-dimethoxyphenyl)-N-(4-(4-isopropylpiperazine-1-carbonyl)phenyl)pyrazolo[1,5-a]pyrimidine-2-carboxamide], for which, in data set [1], the solubility at 90 min fell in the range of 0.1 to 10 µg/mL (≈ 0.189 to 18.9 µM). In the data set on C57BL/6 female mice, the “Ratio of tear volume” value is 2.11. Further, the pEC50 on human wild type-CFTR [2] and on human wild type-CFTR [3] was 5.70 to 6.70 throughout.
Turning to `COc1ccc(-c2ccnc3cc(C(=O)N[C@H]4CC[C@H](C(=O)OCCCN5CCOCC5)CC4)nn23)cc1OC` [Compound 197, 3-morpholinopropyl (1r,4r)-4-(7-(3,4-dimethoxyphenyl)pyrazolo [1,5-a]pyrimidine-2-carboxamido)cyclohexane-1-carboxylate], the “Ratio of tear volume” value with C57BL/6 female mice is listed as 1.18. In addition, the pEC50 at human wild type-CFTR [2] and on human wild type-CFTR [3] was 5.70 to 6.70 each time.
As for `COc1ccc(-c2ccnc3cc(C(=O)Nc4ccc(N5CCN(C(=O)OC(C)(C)C)CC5)cn4)nn23)cc1OC` [Compound 272, tert-butyl 4-(6-(7-(3,4-dimethoxyphenyl)pyrazolo [1,5-a]pyrimidine-2-carboxamido)pyridin-3-yl)piperazine-1-carboxylate], the solubility at 90 min in data set [1] was below 0.1 µg/mL. Also, the “Ratio of tear volume” value with C57BL/6 female mice amounted to 1.14. Further, the pEC50 at human wild type-CFTR [3] was above 6.70.
The matching figures for `COc1ccc(-c2ccnc3cc(C(=O)Nc4ccc(N5CC=CCC5)cc4)nn23)cc1OC` [Compound 273, N-(4-(3,6-dihydropyridin-1(2H)-yl)phenyl)-7 (3,4-dimethoxyphenyl) pyrazolo[1,5-a]pyrimidine-2-carboxamide]: below 0.1 µg/mL, 0.80 and above 6.70.
Take `COc1ccc(-c2ccnc3cc(C(=O)Nc4ccc(N(C)C)cc4)nn23)cc1OC` [Compound 276, 7-(3,4-dimethoxyphenyl)-N-(4-(dimethylamino)phenyl)pyrazolo[1,5-a]pyrimidine-2-carboxamide]: in data set [1], the solubility at 90 min was below 0.1 µg/mL. Further, the “Ratio of tear volume” value with C57BL/6 female mice is 1.21. In addition, the pEC50 at human wild type-CFTR [3] is above 6.70.
`COc1ccc(-c2ccnc3cc(C(=O)Nc4ccc(N5CCCC5)cc4)nn23)cc1OC` [Compound 277, 7-(3,4-dimethoxyphenyl)-N-(4-(pyrrolidin-1-yl)phenyl)pyrazolo[1,5-a] pyrimidine-2-carboxamide]: the solubility at 90 min in data set [1] was below 0.1 µg/mL. The pEC50 at human wild type-CFTR [2] and at human wild type-CFTR [3] was above 6.70 each time.
